Assay type in all cases: in vivo
For data set [1], the system named is corn (GA-tolerant). As to the kind of experiment: Greenhouse trial: crop plant compatibility. On the procedure:
(§1) The trials were carried out under greenhouse conditions (test pots, diameter 8 cm, spray application using 300 l of water/hectare, 2 repetitions, 6 to 8 plants per pot).
(§2) Scoring was by visual comparison of the treated with the untreated control pots (0-100% scale, 14 d after the application).

The subject of data set [2] is Setaria faberii. In words: Greenhouse trial: herbicidal efficacy, Setaria faberii. The conditions noted are these: Table 5; post-emergence, 1-3-leaf stage, scoring 14 days after treatment; g of ai/ha: A1.1 100; B1.1 5; C7 15; C13 2.5; C9 12.5 alone, 2.5 in combination. As for the experimental part:
as §1
(§3) Application was by post-emergence treatment; the species of the harmful plants and their stage of growth at the time of treatment are indicated in the individual results tables. The application rates of the herbicidally active compounds used on their own or in combinations are likewise listed in the individual results tables.
as §2
(§4) 4.2 Abbreviations used in Tables 4 to 8 application rate g/ai=application rate in grams of active compound per hectare • ai=active ingredient (of an active compound content of 100%) • GA=glufosinate-ammonium • GA-tolerant=corn which is tolerant to GA (GMO: LL corn) • E^C=expected value according to Colby, (E^C=A+B−A×B/100)= • =for ternary combinations: (A+B)+C−(A+B)×C/100 • Δ=difference (%) between observed value -%- vs. expected value (%) (observed value minus expected value) • examination: —observed values for (A), (B) and (A)+(B) in % • scoring: —observed value (%) greater>than E^C/E^A: ->synergism (+A) • —observed value (%) equal to =E^C/E^A->additive effect (+−Δ) • —observed value (%) smaller<than E^A/E^C->antagonism (−Δ)

Data set [3] relates to Setaria viridis. In words: Greenhouse trial: herbicidal efficacy, Setaria viridis. The conditions noted are these: Table 6; post-emergence, 1-3-leaf stage, scoring 14 days after treatment; g of ai/ha: A1.1 100; B1.1 5; C3 5; C11 25. As for the experimental part: as §1, §3, §2, §4
Data set [4] relates to Pharbitis purpureum. In words: Greenhouse trial: herbicidal efficacy, Pharbitis purpureum. The conditions noted are these: Table 7; post-emergence, 1-leaf stage, scoring 14 days after treatment; g of ai/ha: A1.1 100; B1.1 5; C12 50. On the procedure:
as §1, §3, §2, §4

Data set [5] relates to Eleusine indica. In words: Greenhouse trial: herbicidal efficacy, Eleusine indica. The conditions noted are these: Table 8; post-emergence, 1-2-leaf stage, scoring 14 days after treatment; g of ai/ha: A1.1 100; B1.1 5; C8 0.5; isoxadifen 100; cyprosulfamide 100; C′ = isoxadifen in r19, cyprosulfamide in r23. On the procedure: as §1, §3, §2, §4
[6] abbreviates: Table 4, post-emergence, 1-2-leaf stage, scoring 14 days after treatment, g of ai/ha: A1.1 100, B1.1 2.5 alone, 5 in combinations, C1 2.5, C2 1.25, C10 250, C4 50, C5 1, C6 2.
[7] abbreviates: Table 5, post-emergence, 1-3-leaf stage, scoring 14 days after treatment, g of ai/ha: A1.1 100, B1.1 5, C7 15, C13 2.5, C9 12.5 alone, 2.5 in combination.
The mark [8] stands for this setting: Table 8, post-emergence, 1-2-leaf stage, scoring 14 days after treatment, g of ai/ha: A1.1 100, B1.1 5, C8 0.5, isoxadifen 100, cyprosulfamide 100, C′ = isoxadifen in r19, cyprosulfamide in r23.

On to `CP(=O)(O)CCC(N)C(=O)O` (centres unmarked) [(A1.1) GA, glufosinate-ammonium], for which the “Damage to crop plants (%) corn (GA-tolerant) (≦15-20% acceptable)” value (“Damage to crop plants (%) corn” for short) is on record as 0% in data set [1] (setting [6]); 0% in data set [1] (setting [7]); 0% in data set [1] (Table 6, post-emergence, 1-3-leaf stage, scoring 14 days after treatment, g of ai/ha: A1.1 100, B1.1 5, C3 5, C11 25); 0% in data set [1] (Table 7, post-emergence, 1-leaf stage, scoring 14 days after treatment, g of ai/ha: A1.1 100, B1.1 5, C12 50); 0% in data set [1] (setting [8]). Besides, the “Herbicidal efficacy % Setaria faberii” value in data set [2] came out at 10%. Besides, the “Herbicidal efficacy % Setaria viridis” value in data set [3] turned out to be 5%. Further, the “Herbicidal efficacy % Pharbitis purpureum” value in data set [4] is 45%.

For the compound `COC(=O)c1nc(-c2ccc(Cl)c(OC)c2F)cc(N)c1Cl` [(B1.1), methyl 4-amino-3-chloro-6-(4-chloro-2-fluoro-3-methoxyphenyl)pyridine-2-carboxylate], in data set [1] (in vivo), the “Damage to crop plants (%) corn” value was determined as 0%. In data set [2], the “Herbicidal efficacy % Setaria faberii” value came to 96%. In addition, in data set [3], the “Herbicidal efficacy % Setaria viridis” value is listed as 90%. In addition, the “Herbicidal efficacy % Pharbitis purpureum” value in data set [4] is 45%.

For the compound `CS(=O)(=O)c1cc(C(F)(F)F)ccc1C(=O)c1cnoc1C1CC1` [(C3) isoxaflutole, isoxaflutole], the “Damage to crop plants (%) corn” value in data set [1] (in vivo) is 15%. In addition, in data set [3], the “Herbicidal efficacy % Setaria viridis” value is recorded as 0%.

Take `N#Cc1cc(Br)c(O)c(Br)c1` [(C4) bromoxynil, bromoxynil]: the “Damage to crop plants (%) corn” value in data set [1] (setting [6]) was 0%.

On to `C#CCN1C(=O)COc2cc(F)c(N3C(=O)C4=C(CCCC4)C3=O)cc21` [(C5) flumioxazin, flumioxazin], for which the “Damage to crop plants (%) corn” value in data set [1] (setting [6]) is reported as 15%.

As to `CS(=O)(=O)c1ccc(C(=O)C2C(=O)CCCC2=O)c([N+](=O)[O-])c1` [(C7) mesotrione, mesotrione], in data set [1] (setting [7]), the “Damage to crop plants (%) corn” value came to 0%. Also, the “Herbicidal efficacy % Setaria faberii” value in data set [2] is 0%.

Consider `COC(=O)c1csc(C)c1S(=O)(=O)NC(=O)n1nc(OC)n(C)c1=O` [(C8) thiencarbazone-me, thiencarbazone-methyl], for which the “Damage to crop plants (%) corn” value in data set [1] (setting [8]) is reported as 0%. Moreover, the “Herbicidal efficacy % Eleusine indica” value in data set [5] is reported as 10%.

On to `CS(=O)(=O)c1ccc(C(=O)C2C(=O)CCCC2=O)c(Cl)c1COCC(F)(F)F` [(C9) tembotrione, tembotrione], for which the “Herbicidal efficacy % Setaria faberii” value in data set [2] is on record as 10%.

`CCNc1nc(Cl)nc(NC(C)C)n1` [(C10) atrazin, atrazine]: the “Damage to crop plants (%) corn” value in data set [1] (setting [6]) is reported as 0%.

With `CC(C)N(C(=O)COc1nnc(C(F)(F)F)s1)c1ccc(F)cc1` [(C11) flufenacet, flufenacet], in data set [1] (in vivo), the “Damage to crop plants (%) corn” value is reported as 0%. For the same compound, the “Herbicidal efficacy % Setaria viridis” value in data set [3] came to 0%.

With `CCOCN(C(=O)CCl)c1c(C)cccc1CC` [(C12) acetochlor, acetochlor], in data set [1] (in vivo), the “Damage to crop plants (%) corn” value stood at 0%. For the same compound, the “Herbicidal efficacy % Pharbitis purpureum” value in data set [4] is listed as 10%.

As to `Cc1c(C(=O)c2cnn(C)c2O)ccc(S(C)(=O)=O)c1C1=NOCC1` [(C13) topramezone, topramezone], the “Damage to crop plants (%) corn” value in data set [1] (setting [7]) was found to be 0%. The “Herbicidal efficacy % Setaria faberii” value in data set [2] was determined as 10%.

`O=C(O)C1=NOC(c2ccccc2)(c2ccccc2)C1` [(C14) isoxadifen, isoxadifen]: the “Damage to crop plants (%) corn” value in data set [1] (setting [8]) was 0%. Also, the “Herbicidal efficacy % Eleusine indica” value in data set [5] amounted to 0%.

Consider `COc1ccccc1C(=O)NS(=O)(=O)c1ccc(C(=O)NC2CC2)cc1` [(C15) cyprosulfamide, cyprosulfamide], for which, in data set [1] (setting [8]), the “Damage to crop plants (%) corn” value is on record as 0%. The “Herbicidal efficacy % Eleusine indica” value in data set [5] is recorded as 0%.
